From patent US10889543B2, “Fine-tune modulators of neuronal excitability for neuropsychiatric disorders” (THE BOARD OF REGENTS OF THE UNIVERSITY OF TEXAS SYSTEM, priority 2016, dated 2021)
Residues, ends and D or L forms follow the SMILES beside them. *: point of attachment. Cbz = O=C(OCc1ccccc1)*; Boc = CC(C)(C)OC(=O)*

Assays:
Nav1.6 channels = biological target: T1, Nav1.6 channels (Homo sapiens, UniProt Q9UQD0); assay: Whole-cell patch clamp of Na+ currents in HEK-Nav1.6 cells expressing GFP (Nav1.6 channels alone); format: cell-based
T1 construct: expressed in transfected cells; host or cells: HEK-Nav1.6 (HEK293 stably expressing Nav1.6, G418 selection)
T1 sequence (Q9UQD0 whole entry): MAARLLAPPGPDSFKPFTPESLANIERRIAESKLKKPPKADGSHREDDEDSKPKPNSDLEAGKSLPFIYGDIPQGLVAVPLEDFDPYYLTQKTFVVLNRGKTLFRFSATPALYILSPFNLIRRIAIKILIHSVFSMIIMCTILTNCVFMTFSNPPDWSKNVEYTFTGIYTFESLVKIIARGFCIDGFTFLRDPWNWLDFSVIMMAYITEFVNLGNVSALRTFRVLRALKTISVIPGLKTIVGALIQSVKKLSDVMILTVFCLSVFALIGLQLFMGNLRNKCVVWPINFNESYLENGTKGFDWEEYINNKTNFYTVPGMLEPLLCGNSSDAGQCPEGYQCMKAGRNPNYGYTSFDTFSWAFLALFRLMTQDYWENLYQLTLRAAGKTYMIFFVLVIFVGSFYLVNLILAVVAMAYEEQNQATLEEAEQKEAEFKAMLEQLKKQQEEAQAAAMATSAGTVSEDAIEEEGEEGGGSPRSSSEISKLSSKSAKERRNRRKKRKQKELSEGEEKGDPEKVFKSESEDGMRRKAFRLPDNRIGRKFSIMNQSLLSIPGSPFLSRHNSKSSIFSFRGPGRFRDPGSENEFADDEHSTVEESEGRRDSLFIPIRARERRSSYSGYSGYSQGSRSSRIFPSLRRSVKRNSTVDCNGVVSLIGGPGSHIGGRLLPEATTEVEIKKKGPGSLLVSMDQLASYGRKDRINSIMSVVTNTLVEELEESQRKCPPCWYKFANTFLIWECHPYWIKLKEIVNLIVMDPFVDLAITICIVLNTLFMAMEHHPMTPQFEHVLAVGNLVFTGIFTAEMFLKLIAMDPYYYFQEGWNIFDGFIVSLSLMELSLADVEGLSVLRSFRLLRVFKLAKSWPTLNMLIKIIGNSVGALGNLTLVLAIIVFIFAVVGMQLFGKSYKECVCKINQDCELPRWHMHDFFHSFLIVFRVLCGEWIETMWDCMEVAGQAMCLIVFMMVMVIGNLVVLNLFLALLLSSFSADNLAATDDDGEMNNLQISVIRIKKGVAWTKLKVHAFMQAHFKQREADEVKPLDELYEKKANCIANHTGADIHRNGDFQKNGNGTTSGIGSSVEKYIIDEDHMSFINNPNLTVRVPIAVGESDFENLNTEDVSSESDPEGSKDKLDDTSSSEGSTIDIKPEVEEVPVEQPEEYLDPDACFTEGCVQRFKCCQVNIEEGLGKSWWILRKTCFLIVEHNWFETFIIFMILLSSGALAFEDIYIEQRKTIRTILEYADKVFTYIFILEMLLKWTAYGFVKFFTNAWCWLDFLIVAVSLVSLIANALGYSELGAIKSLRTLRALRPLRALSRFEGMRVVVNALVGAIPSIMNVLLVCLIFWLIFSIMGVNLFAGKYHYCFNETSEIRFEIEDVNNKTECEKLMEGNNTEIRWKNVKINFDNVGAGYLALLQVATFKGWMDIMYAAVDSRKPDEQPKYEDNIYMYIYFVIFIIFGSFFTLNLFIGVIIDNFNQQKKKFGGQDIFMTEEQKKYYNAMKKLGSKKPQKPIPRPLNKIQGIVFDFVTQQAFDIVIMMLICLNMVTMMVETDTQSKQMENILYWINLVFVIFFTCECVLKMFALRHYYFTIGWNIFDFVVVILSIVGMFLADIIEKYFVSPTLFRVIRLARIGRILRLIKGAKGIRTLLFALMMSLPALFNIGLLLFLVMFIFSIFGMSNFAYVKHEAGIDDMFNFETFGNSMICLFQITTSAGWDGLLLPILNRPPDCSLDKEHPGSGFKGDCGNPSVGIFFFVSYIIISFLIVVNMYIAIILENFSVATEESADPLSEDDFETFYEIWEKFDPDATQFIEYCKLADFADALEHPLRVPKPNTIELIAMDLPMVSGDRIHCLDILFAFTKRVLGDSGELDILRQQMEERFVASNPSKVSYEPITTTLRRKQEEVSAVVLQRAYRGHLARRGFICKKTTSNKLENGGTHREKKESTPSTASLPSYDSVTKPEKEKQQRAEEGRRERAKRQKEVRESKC
Procedure: To determine the role of compounds of the invention in Nav1.6 channels alone and Nav1.6 channels in the presence of FGF14, 2×2 experimental groups using compound ZL0181, an exemplary embodiment, were designed. HEK-Nav1.6 cells were transiently transfected with GFP or […] and treated with either DMSO (0.15% final concentration, control group) or ZL0181 (20 μM, final concentration) 20-60 min prior to the experiments. […] Thus, ZL0181 inhibits peak current amplitude of Na1.6 current.
Furthermore, using a range of doses from 1 μM to 100 μM a dose-response profile for ZL0181 in HEK293-Nav1.6 cells alone and HEK-Nav1.6 cells transfected with FGF14 was developed.
(§1) HEK-Nav1.1, […] HEK-Nav1.6 were maintained in medium composed of equal volumes of DMEM and F-12 (Invitrogen) supplemented with 0.05% glucose, 0.5 mm pyruvate, 10% fetal bovine serum, 100 units/ml penicillin, 100 μg/ml streptomycin incubated at 37° C. with 5% CO2. For selection of Nav1.1 and Nav1.2, 500 μg/ml G418 (Invitrogen) was used, and for selection of Nav1.6, 80 μg/ml G418 (Invitrogen) was used. Cells were transfected according to manufacturer's instructions at 90-100% confluency using Lipofectamine 2000 (Invitrogen). See e.g., Shavkunov, A., et al. Assay and drug development technologies 10(2):148-160 (2012).
(§2) Detailed methods for path-clamp experiments is known in the art. See e.g., Ali, S. R., et al., Journal of Biological Chemistry 291:11268 (2016).

Nav1.1 channels = biological target: T2, Nav1.1 channels (Homo sapiens, UniProt P35498); assay: Patch clamp of Na+ currents in Nav1.1 channels; format: cell-based
T2 construct: expressed in transfected cells
Procedure: The role of ZL0181 in regulating Nav1.1 and Nav1.2 channels was also investigated.
as §1, §2

Nav1.6 C-tail = biological target: T3, Nav1.6 C-tail (Homo sapiens, UniProt Q9UQD0); assay: Surface plasmon resonance spectroscopy, immobilized Nav1.6 C-tail; format: binding; conditions: SPR, 25° C., 10-200 μM
T3 construct: FGF14WT and Nav1.6 C-tail were immobilized; made in house
T3 sequence (Q9UQD0 1797-1980 limits assumed): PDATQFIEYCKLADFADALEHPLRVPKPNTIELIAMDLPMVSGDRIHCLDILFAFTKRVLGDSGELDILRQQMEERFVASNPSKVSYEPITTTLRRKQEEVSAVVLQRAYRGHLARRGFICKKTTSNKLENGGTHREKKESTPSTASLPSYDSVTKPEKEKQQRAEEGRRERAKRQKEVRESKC
Procedure: Surface Plasmon Resonance Spectroscopy. SPR experiments were performed on a Biacore T100 instrument (Biacore GE), and the interaction between FGF14 to Nav1.6 channel was studied at 25° C. To analyze the effects of ZL0181 on channel binding, FGF14WT and Nav1.6 C-tail were immobilized using acetate 5.5 with amine coupling kit on CM5 sensor chip, and obtaining RU 3000 and 4500 respectively. No protein was coupled to the control flow channel of the chip. ZL0181 (5-200 μM) in HBS-P+(50 μl/min) buffer ([…], 150 mM NaCl, 0.005% (v/v) P20), pH 7.4 were injected over the chip for 180 s. Next, HB S-P+ buffer without protein were passed over the chip for 180 s to monitor dissociation, and the chip surface was then regenerated with NaCl (200 mM). For each injection of ZL0181 binding to the FGF14WT or the Nav1.6, the nonspecific responses were subtracted from the responses obtained for control prior to data analysis. Maximal equilibrium responses were plotted against the concentrations of ZL0181, and the equilibrium dissociation constant (KD) was calculated from the fitted saturation binding curve. Fitted binding curves were judged to be accurate based on the distribution of the residuals (even and near zero). Graphs were plotted in GraphPad Prism 6 Software (La Jolla, Calif.).
The role of ZL0181 was further determined by surface plasmon resonance spectroscopy. […]

`CC(C)C[C@H](NC(=O)[C@H](Cc1ccccc1)NC(=O)OCc1ccccc1)C(=O)N1CCC[C@H]1C(=O)N[C@@H](CCCCNC(=O)OC(C)(C)C)C(N)=O` [ZL0181, Z-Phe-Leu-Pro-Lys(Boc)-NH2] (Cbz-FLPK(Boc)-NH2) was tested, and the “activation and inactivation properties of Nav channel alone” value (Nav1.6 channels; 20 μM, HEK-Nav1.6 cells with GFP) was “does not change activation and inactivation properties”, the IC50 (Nav1.6 channels; HEK293-Nav1.6 cells alone, doses 1 μM to 100 μM, read-out: IC50, inhibition of Nav1.6 encoded currents) was 19.7 ± 5.7 µM and the “Nav1.6-mediated peak current density” value (Nav1.6 channels; HEK-Nav1.6 cells with GFP, pretreated with 20 μM, n=12, DMSO control −73.8±13.6) was −20.9±3.4 pA/pF. The “peak current amplitude in Nav1.1 channels” value (Nav1.1 channels) was “suppresses peak current amplitude”, the “synergy with FGF14 on Na+ current and rescue of V1/2 of inactivation, Nav1.1” value (Nav1.1 channels; in presence of FGF14) was “does neither act synergistically to further suppress Na+ current in presence of FGF14 or rescue the voltage-dependence inactivation property” and the Kd (Nav1.6 C-tail) was 212 µM.
